Measurements reported in PMC11413682 (Acta Pharmaceutica Sinica. B, 2024).
Like-named read-outs stand apart in the source and are kept apart here. No end group written: not given here.

Target: T1, CUL2^ZYG11B (residues 490–728) (Homo sapiens, UniProt Q9C0D3)
T1 construct: PCR was used to amplify CUL2^ZYG11B (residues 490–728); 6×His-SUMO (TEV-cleavable) (N, cleaved yes); made in house; host or cells: E. coli
Assay: ITC binding of ORF10 NTE synthetic peptides to CUL2^ZYG11B

[1] = figure panels, […], repeated 3 times, read-out: Kd

T1 sequence (Q9C0D3 490-728): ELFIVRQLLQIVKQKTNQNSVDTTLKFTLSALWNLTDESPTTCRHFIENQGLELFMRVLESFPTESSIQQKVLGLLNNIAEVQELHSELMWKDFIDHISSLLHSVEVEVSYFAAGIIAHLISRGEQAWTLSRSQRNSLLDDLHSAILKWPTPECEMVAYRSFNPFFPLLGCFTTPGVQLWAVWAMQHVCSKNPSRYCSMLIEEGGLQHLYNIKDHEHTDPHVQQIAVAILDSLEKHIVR

Substance	Kd [1] [µM]	other results
AYINV [SARS-2 ORF10 N5-G1A]		Kd: 12.4 µM
GFINV [SARS-2 ORF10 N5-Y2F]	4.73	
GYANV [SARS-2 ORF10 N5-I3A]	5.61	
GYFNV [SARS-2 ORF10 N5-I3F]	0.87	
GYIAV [SARS-2 ORF10 N5-N4A]	0.59	
PYINV [SARS-2 ORF10 N5-G1P, altered peptide derived from SARS-CoV-2 ORF10 N5, G1P]		binding to CUL2^ZYG11B (in words) (ITC): abolished
